# Reference: US20190112580A1, “METHODS FOR TREATING CO[…] AND RELATED CULTURED CELLS” (priority 2017, published 2019)
# What was measured:
# [1] = tested on: CP patient derived myoblast cells; test: Myoblast fusion and myotube formation, immunostaining and Fusion Index; type: cell-based, human; conditions: 5 μM, 24 hours pretreatment, 42 hours differentiation
# Text: Myotubes were differentiated using the following methods. Once the appropriate level of cell confluence of 50-80% was obtained for the myoblast cell preparation, fusion and differentiation of myoblasts into myotubes was promoted by switching from a high-serum medium to a low-serum differentiation medium. […] Specifically, the high-serum proliferation medium was made of Ham's F10 medium (Corning Life Sciences, Tewksbury, Mass.) combined with 20% Fetal Bovine Serum (“FBS”) (Gibco brand, Thermo Fischer Scientific, Waltham, Mass.) 10 mg/ml streptomycin, and 100 units/ml penicillin (Gibco), human recombinant bFGF (5 ng/ml) (Becton Dickenson). […] Cell preparations cultured in the low-serum differentiation medium may be analyzed for myotube formation starting from about 24 hours to about 6 weeks after switching from the high-serum to the low-serum medium.
# For visual and quantitative analysis by immunostaining, the isolated satellite cell-derived myoblast cell preparations were treated for immunostaining. […] Fluorescence microscopy was performed using an epifluorescence or confocal microscope using the 20× air objective, the 40×, or 63× oil immersion objective and zoom rates between 1 and 3 in sequential scanning mode. […]
# [2] = tested on: CpG island located in the promoter region of the human ITGB1 gene; test: Promoter methylation PCR of ITGB1 CpG island; type: cell-based; conditions: 5 μM, 24-hour treatment in proliferation medium before differentiation
# Protocol: Myoblast cell preparations from CP and TD study subjects were exposed to 5 μM of the DNA methyltransferase inhibitor 5-AZA in proliferation medium. 5-AZA was introduced while the myoblast cell preparations were being developed in the high-serum medium, once the myoblast cell preparations were at about 70% cell confluence by visual inspection. The myoblast cell preparations each were cultured in a high-serum medium in the presence of 5 μM of 5-AZA for 24 hours. The myoblast cell preparations then had the 5-AZA washed off by switching the myoblast cell preparations each to a low-serum medium.
# Myoblasts were seeded at 50,000 cells/well, at approximately 13,000 cells/cm^2, in a 12-well plate and maintained in the same proliferation medium as described in Example 1. The cells were allowed to proliferate at 37° C. and 5% CO2 until they reach up to 50-80% cell confluence by visual inspection. The proliferating myoblasts are then treated with 5 μM 5-AZA (Sigma-Aldrich) for 24 hours to induce DNA hypomethylation before differentiation. 5-AZA was obtained from a 10 uM stock solution diluted 1:2000. In a 2000 mL well, 1 mL of 5 μM 5-AZA was used. […]
# The PCR amplification curves or the intensity of the amplified product in the agarose gel following electrophoresis may be used to quantify the levels of DNA methylation for a specific promoter region. […]
# [3] = tested on: ITGB1D; test: ITGB1D protein quantification by Western blotting; type: cell-based, human; conditions: 5 μM applied before differentiation; CP cultures; 48 hours of differentiation in low serum medium
# Protocol: After separation, proteins were transferred to 0.45 μm nitrocellulose membrane in a Tris-glycine buffer complemented with 20% methanol. To visualize bands and detect transfer efficiency, membranes were stained with Ponceau S. Membranes were then blocked in a buffer containing 10 mM Tris, 0.15 M NaCl, 0.1% Tween-20 and 1% BSA and incubated with a desired primary antibody (typically 1:500 to 1:1000 dilution) overnight at 4° C. After washing, membranes were incubated with peroxidase-conjugated secondary antibodies (typically at a 1:1000 dilution) for 1 hour at room temperature (Jackson ImmunoResearch Laboratories). Bandscan was identified using chemiluminescence (ECL). Bands also were analyzed by densitometry on a PXi imager (Syngene) and values expressed as arbitrary values of protein levels, normalized either by total proteins transferred on nitrocellulose membrane (as visualized with Ponceau S) or by another reference protein detected by Western blotting.
# To test for protein expression levels as shown in FIG. 3A to 3E and FIGS. 4D and 4E, Western blotting was used. […]
structure (smiles),measurement,setting,value
"Nc1ncn([C@@H]2O[C@H](CO)[C@@H](O)[C@H]2O)c(=O)n1 [5-AZA, 5-azacytidine]","myoblast fusion and myotube formation, morphologically",[1]; FIG. 4B,sufficient to partially restore myoblast fusion and myotube formation
same,"myoblast fusion and myotube formation, quantitatively (Fusion Index)",[1]; FIG. 4C,sufficient to partially restore myoblast fusion and myotube formation
same,DNA methylation of the CpG island in the ITGB1 promoter region,[2],sufficient to cause hypomethylation of the CpG island in the ITGB1 promoter region
same,ITGB1D protein expression levels,[3],sufficient to restore ITGB1D protein expression levels
